Laboratory results published in patent publication US20220169632A1, “METHODS AND MATERIALS FOR INCREASING OR MAINTAINING NICOTINAMIDE MONONUCLEOTIDE ADENYLYL TRANSFERASE-2 (NMNAT2) POLYPEPTIDE LEVELS” (University of Pittsburgh - Of the Commonwealth System of …, priority 2019, published 2022).

Test system: NMNAT2
Test: NMNAT2-Hibit nano-luciferase activity in stably transfected U87MG cells, various concentrations, 24 hours
Assay type: cell-based
Conditions: U87MG cells stably transfected with NMNAT2-Hibit luc plasmid
Experimental: Selected compounds were tested in vitro. U87MG cells were stably transfected with NMNAT2-Hibit luc plasmid. Cells were treated with a test compound at various concentrations for 24 hours. Cells were then collected and assayed for nano-luciferase activity.

Row | SMILES | E: compound efficacy for NMNAT2 activation (concentration giving >25% increase in NMNAT2 luciferase activity)
1 | Cc1cccc(NC(=O)c2ccc3c(c2)c(C)c(C)n3Cc2ccccc2F)c1C [BC20246] | ++ (“++” >25% increase in NMNAT2 luciferase activity at >1 μM ≤25 μM.)
2 | O=C(NCc1cccc(F)c1)N1CCc2c(c3ccccc3n2Cc2ccncc2)C1 [BC20334] | + (“+” >25% increase in NMNAT2 luciferase activity at >25 μM.)
3 | COc1cccc(CNC(=O)CCCc2cn(Cc3cccc(F)c3)c3ccccc23)c1 [BC20143] | ++ (“++” >25% increase in NMNAT2 luciferase activity at >1 μM ≤25 μM.)
4 | COc1cccc(CNC(=O)CCCc2cn(Cc3ccccc3C)c3ccccc23)c1 [BC20156] | ++ (“++” >25% increase in NMNAT2 luciferase activity at >1 μM ≤25 μM.)
5 | Cc1cccc(CNC(=O)C2CCc3c(c4ccccc4n3Cc3cc(C)ccc3C)C2)c1 (stereo not shown) [BC20186] | + (“+” >25% increase in NMNAT2 luciferase activity at >25 μM.)
6 | Cc1cccc(CNC(=O)C2CCc3c(c4ccccc4n3Cc3ccncc3)C2)c1 (stereo not shown) [BC20281] | + (“+” >25% increase in NMNAT2 luciferase activity at >25 μM.)
7 | Cc1ccc(C)c(Cn2c(C(F)F)c(CCC(=O)NCc3ccccc3F)c3ccccc32)c1 [BC20393] | ++ (“++” >25% increase in NMNAT2 luciferase activity at >1 μM ≤25 μM.)
8 | Cc1cccc(Cn2cc(CCCC(=O)NCc3cccc(F)c3)c3ccccc32)c1 [BC20166] | ++ (“++” >25% increase in NMNAT2 luciferase activity at >1 μM ≤25 μM.)
9 | Cc1cccc(CNC(=O)[C@H]2C[C@@H]2c2cn(Cc3cc(C)ccc3C)c3ccccc23)c1 (racemic) [BC20348] | + (“+” >25% increase in NMNAT2 luciferase activity at >25 μM.)
10 | Cc1ccccc1CNC(=O)C1CCc2c(c3ccccc3n2Cc2ccncc2)C1 (stereo not shown) [BC20280] | + (“+” >25% increase in NMNAT2 luciferase activity at >25 μM.)
11 | COc1cccc(CNC(=O)C2CCCc3c2c2ccccc2n3Cc2cccc(F)c2)c1 (stereo not shown) [BC20375] | + (“+” >25% increase in NMNAT2 luciferase activity at >25 μM.)
12 | O=C(Cn1cc2c3c(cccc31)C(=O)N(Cc1cccc(F)c1)CC2)NCc1cccc(F)c1 [BC20355] | ++ (“++” >25% increase in NMNAT2 luciferase activity at >1 μM ≤25 μM.)
13 | Cc1ccc(Cn2cc(C3CCN(CCc4cccc(C)c4)C(=O)C3)c3ccccc32)cc1 (stereo not shown) [BC20268] | + (“+” >25% increase in NMNAT2 luciferase activity at >25 μM.)
14 | Cc1c(C)n(Cc2cccc(F)c2)c2ccc(C(=O)NC(C)Cc3ccco3)cc12 (stereo not shown) [BC20118] | ++ (“++” >25% increase in NMNAT2 luciferase activity at >1 μM ≤25 μM.)
15 | Cc1ccc(C)c(Cn2cc([C@H]3C[C@@H]3C(=O)N3CCc4occc4C3)c3ccccc32)c1 (racemic) [BC20359] | + (“+” >25% increase in NMNAT2 luciferase activity at >25 μM.)
16 | Cc1ccc(C)c(Cn2c(C(F)F)c(CCC(=O)NCc3ccccc3C)c3ccccc32)c1 [BC20395] | ++ (“++” >25% increase in NMNAT2 luciferase activity at >1 μM ≤25 μM.)
17 | CCCCN(CC)Cc1ccc(CNC(=O)CCCc2cn(Cc3ccccc3F)c3ccccc23)o1 [BC20211] | +++ (“+++” >25% increase in NMNAT2 luciferase activity at ≤1 μM.)
18 | O=C(CCCc1cn(Cc2cccc(F)c2)c2ccccc12)NCc1ccco1 [BC20135] | ++ (“++” >25% increase in NMNAT2 luciferase activity at >1 μM ≤25 μM.)
19 | O=C(Cn1c2c(c3ccccc31)CC(C(=O)NCc1ccco1)CC2)NCc1cccc(F)c1 (stereo not shown) [BC20286] | ++ (“++” >25% increase in NMNAT2 luciferase activity at >1 μM ≤25 μM.)
20 | Cc1ccc(C)c(Cn2cc([C@H]3C[C@@H]3C(=O)N(CCN(C)C)Cc3ccco3)c3ccccc32)c1 (racemic) [BC20364] | +++ (“+++” >25% increase in NMNAT2 luciferase activity at ≤1 μM.)
21 | Cc1ccc(C)c(Cn2cc([C@H]3C[C@@H]3C(=O)NCc3ccncc3)c3ccccc32)c1 (racemic) [BC20352] | + (“+” >25% increase in NMNAT2 luciferase activity at >25 μM.)
22 | Cc1cccc(CNC(=O)CCCc2cn(Cc3cccc(C)c3)c3ccccc23)c1 [BC20168] | ++ (“++” >25% increase in NMNAT2 luciferase activity at >1 μM ≤25 μM.)
23 | Cc1cccc(Cn2cc(CCCC(=O)NCc3ccccc3F)c3ccccc32)c1 [BC20165] | +++ (“+++” >25% increase in NMNAT2 luciferase activity at ≤1 μM.)

Row | SMILES | E: compound efficacy for NMNAT2 activation (concentration giving >25% increase in NMNAT2 luciferase activity)
24 | O=C1CC(c2cn(Cc3cccc(F)c3)c3ccccc23)CCN1CCOc1ccc(F)cc1 (stereo not shown) [BC20340] | + (“+” >25% increase in NMNAT2 luciferase activity at >25 μM.)
25 | Cc1ccc(C)c(Cn2cc([C@H]3C[C@@H]3C(=O)NCc3ccccn3)c3ccccc32)c1 (racemic) [BC20366] | + (“+” >25% increase in NMNAT2 luciferase activity at >25 μM.)
26 | Cc1ccc(C)c(Cn2c(C)c([C@H]3C[C@@H]3C(=O)NCc3cccc(F)c3)c3ccccc32)c1 (racemic) [BC20302] | + (“+” >25% increase in NMNAT2 luciferase activity at >25 μM.)
27 | O=C(NCc1cccc(F)c1)N1CCc2c(c3ccccc3n2Cc2cccc(F)c2)C1 [BC20309] | + (“+” >25% increase in NMNAT2 luciferase activity at >25 μM.)
28 | COc1ccccc1CNC(=O)[C@H]1C[C@@H]1c1c(C)n(Cc2cc(C)ccc2C)c2ccccc12 (racemic) [BC20324] | + (“+” >25% increase in NMNAT2 luciferase activity at >25 μM.)
29 | COc1ccccc1CNC(=O)Cn1cc(C(=O)c2ccc(Cl)cc2)c2ccccc21 [BC20180] | ++ (“++” >25% increase in NMNAT2 luciferase activity at >1 μM ≤25 μM.)
30 | COc1ccc(CNC(=O)N2CCc3c(c4ccccc4n3Cc3ccncc3)C2)cc1 [BC20338] | + (“+” >25% increase in NMNAT2 luciferase activity at >25 μM.)
31 | O=C(NCc1cccc(F)c1)C1CCCc2c1c1ccccc1n2Cc1cccc(F)c1 (stereo not shown) [BC20371] | ++ (“++” >25% increase in NMNAT2 luciferase activity at >1 μM ≤25 μM.)
32 | COc1cccc(CNC(=O)[C@H]2C[C@@H]2c2cn(Cc3ccc(C)cc3)c3ccccc23)c1 (racemic) [BC20299] | + (“+” >25% increase in NMNAT2 luciferase activity at >25 μM.)
33 | Cc1cccc(Cn2cc(CCCC(=O)NCc3ccc(C)o3)c3ccccc32)c1 [BC20164] | +++ (“+++” >25% increase in NMNAT2 luciferase activity at ≤1 μM.)
34 | CC(Cc1ccco1)NC(=O)C1CCCc2c1c1ccccc1n2Cc1cccc(F)c1 (stereo not shown) [BC20377] | + (“+” >25% increase in NMNAT2 luciferase activity at >25 μM.)
35 | CCOC(=O)Cn1cc(C2=CC(=O)NCC2)c2ccccc21 [BC20234] | ++ (“++” >25% increase in NMNAT2 luciferase activity at >1 μM ≤25 μM.)
36 | Cc1ccc(C)c(Cn2cc3c4c(cccc42)C(=O)N(Cc2ccccc2F)CC3)c1 [BC20269] | + (“+” >25% increase in NMNAT2 luciferase activity at >25 μM.)
37 | Cc1ccccc1CNC(=O)Cn1cc2c3c(cccc31)C(=O)N(Cc1cccc(F)c1)CC2 [BC20356] | + (“+” >25% increase in NMNAT2 luciferase activity at >25 μM.)
38 | COc1cccc(CNC(=O)c2ccc3c(c2)c(C)c(C)n3Cc2ccccc2C)c1 [BC20205] | + (“+” >25% increase in NMNAT2 luciferase activity at >25 μM.)
39 | Cc1ccccc1Cn1cc(CCCC(=O)N(CCCN2CCOCC2)Cc2ccco2)c2ccccc21 [BC20157] | +++ (“+++” >25% increase in NMNAT2 luciferase activity at ≤1 μM.)
40 | Cc1ccccc1CNC(=O)C1CCCc2c1c1ccccc1n2Cc1cccc(F)c1 (stereo not shown) [BC20372] | + (“+” >25% increase in NMNAT2 luciferase activity at >25 μM.)
41 | Cc1ccc(C)c(Cn2c3c(c4ccccc42)CC(C(=O)NCc2ccccc2C)CC3)c1 (stereo not shown) [BC20185] | ++ (“++” >25% increase in NMNAT2 luciferase activity at >1 μM ≤25 μM.)
42 | Cc1ccc(Cn2c3c(c4ccccc42)C(C(=O)NCc2ccncc2)CCC3)cc1 (stereo not shown) [BC20390] | + (“+” >25% increase in NMNAT2 luciferase activity at >25 μM.)
43 | Cc1cccc(CNC(=O)CCCc2cn(Cc3ccccc3C)c3ccccc23)c1 [BC20154] | + (“+” >25% increase in NMNAT2 luciferase activity at >25 μM.)
44 | COc1ccc(CNC(=O)N2CCc3c(c4ccccc4n3Cc3cccc(F)c3)C2)cc1 [BC20332] | ++ (“++” >25% increase in NMNAT2 luciferase activity at >1 μM ≤25 μM.)
45 | Cc1c(C)n(Cc2ccccc2F)c2ccc(C(=O)N3CCc4occc4C3)cc12 [BC20247] | + (“+” >25% increase in NMNAT2 luciferase activity at >25 μM.)
46 | O=C1c2cccc3c2c(cn3Cc2cccc(F)c2)CCN1Cc1ccccc1F [BC20274] | + (“+” >25% increase in NMNAT2 luciferase activity at >25 μM.)
